The record followed here is US8288371B2, “Ortho pyrrolidine, benzyl-substituted heterocycle CCR1 antagonists for autoimmune diseases and inflammation” (Pharmacopeia, LLC, priority 2007, dated 2012).

Structures are written as SMILES.

The target in this assay is T1, human CCR1 (Homo sapiens, UniProt P32246).
T1 sequence (P32246 1-355): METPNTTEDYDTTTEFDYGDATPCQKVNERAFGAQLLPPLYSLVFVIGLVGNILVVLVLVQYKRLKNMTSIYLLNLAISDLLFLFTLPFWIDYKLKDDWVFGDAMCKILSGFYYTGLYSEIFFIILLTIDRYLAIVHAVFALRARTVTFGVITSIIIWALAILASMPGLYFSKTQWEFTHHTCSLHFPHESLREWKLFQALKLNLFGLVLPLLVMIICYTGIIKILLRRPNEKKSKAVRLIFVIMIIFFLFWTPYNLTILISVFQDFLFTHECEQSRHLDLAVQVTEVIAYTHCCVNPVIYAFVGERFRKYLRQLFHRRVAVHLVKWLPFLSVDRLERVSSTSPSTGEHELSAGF
Put plainly: CCR1 binding protocol (SPA, [125I]-MIP-1α displacement). As to conditions: cell membrane expressing human CCR1, 0.1 nM [125I]-MIP-1α, 4 hours at ambient temperature; read-out: Relative potency (IC50). The procedure, abridged: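 Human CCR1 membranes (0.5 μg/well) on SPA beads were incubated with compound and 0.1 nM [125I]-MIP-1α (final) for 4 h at ambient temperature. Buffer was Tris pH 7.4 with NaCl, KCl, MnCl and 0.1% BSA. IC50 came from ½-log compound dilutions (10 mM top DMSO stock) by displacement of bound radioligand.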
In general, IC50 refers to the point on the concentration scale where inhibition reaches its midpoint. In the case of `Cc1nnc([C@H]2CCCN2C(=O)Nc2ccc3c(c2)N(C)C(=O)CO3)n1[C@H](C)c1ccc(Cl)cc1` [Compound 352], the concentration for half-maximal inhibition (IC50) is 0.05 to 0.5 µM.

For `CC[C@H](NC(=O)N1CCC[C@@H]1c1nnc(C)n1Cc1ccc(Cl)cc1)c1ccc(Cl)c(Cl)c1` [Compound 191], the IC50 is under 0.05 µM.

`Cc1nnc([C@H]2CCCN2C(=O)N[C@H]2CCS(=O)(=O)c3ccc(Cl)cc32)n1Cc1ccc(Cl)cc1` [Compound 369]: the IC50 is under 0.05 µM.

As for `Cc1nnc([C@H]2CCCN2C(=O)Nc2cc(C(=O)O)ccc2Cl)n1Cc1ccc(Cl)cc1` [Compound 298], the IC50 fell in the range of 0.5 to 5 µM.

Regarding `Cc1nnc([C@H]2CCCN2C(=O)Cc2cc(F)cc(C(F)(F)F)c2)n1Cc1ccc(Cl)cc1` [Compound 509], the IC50 was 0.05 to 0.5 µM.

Regarding `Cc1nc(C(F)(F)F)ccc1NC(=O)N1CCC[C@@H]1c1nnsc1Cc1ccc(Cl)cc1` [Compound 632], the 50% inhibitory concentration (IC50) was under 0.05 µM.

`Cc1nnc([C@H]2CCCN2C(=O)NC2CCc3cc(Cl)ccc32)n1Cc1ccc(Cl)cc1` (stereo partly drawn) [Compound 132]: the IC50 is under 0.05 µM.

On to `Cc1nnc([C@H]2CCCN2C(=O)Nc2ccncn2)n1Cc1ccc(Cl)cc1` [Compound 258], for which the IC50 lay within 0.5 to 5 µM.

Turning to `Cc1nnc([C@H]2CCCN2C(=O)NC2(c3ccccc3)CC2)n1[C@@H](C)c1ccc(Cl)cc1` [Compound 351], the IC50 was 0.05 to 0.5 µM.

For the compound `Cc1noc(C)c1N/C(=C\[N+](=O)[O-])N1CCC[C@@H]1c1nnc(C)n1Cc1ccc(Cl)cc1` [Compound 611], the IC50 is under 0.05 µM.

Take `Cc1nnc([C@H]2CCCN2C(=O)Nc2ccc(C(F)(F)F)cn2)n1Cc1ccc(Cl)cc1` [Compound 277]: the IC50 lay within 0.05 to 0.5 µM.

For `Cc1onc(-c2ccccc2)c1NC(=O)N1CCC[C@@H]1c1nnnn1Cc1ccc(Cl)cc1` [Compound 52], the half-maximal inhibitory concentration (IC50) was under 0.05 µM.

Turning to `O=C(Nc1ccc(C(F)(F)F)cc1Cl)N1CCC[C@@H]1c1ncnn1Cc1ccc(Cl)cc1` [Compound 70], the half-maximal inhibitory concentration (IC50) lay within 0.05 to 0.5 µM.

With `Cc1cc(C(F)(F)F)cc(C)c1NC(=O)N1CCC[C@@H]1c1nnc(C(C)C)n1Cc1ccc(Cl)cc1` [Compound 118], the IC50 lay in the range of 0.05 to 0.5 µM.

`Cc1nnc([C@H]2CC(=O)CN2C(=O)N[C@H]2CCOc3cc(C(F)(F)F)ccc32)n1Cc1ccc(Cl)cc1` [Compound 506]: the IC50 is under 0.05 µM.

As to `Cc1nnc([C@H]2CCCN2C(=O)NC2CCCCCC2)n1Cc1ccc(Cl)cc1` [Compound 186], the IC50 was 0.05 to 0.5 µM.

On to `Cc1nnc([C@H]2CCCN2C(=O)N[C@@H](C)c2ccc(Cl)cc2)n1Cc1ccc(Cl)cc1` [Compound 170], for which the IC50 was under 0.05 µM.

Regarding `CNC(=O)c1ccc(C(F)(F)F)c(NC(=O)N2CCC[C@@H]2c2nnc(C)n2Cc2ccc(Cl)cc2)c1` [Compound 359], the IC50 is under 0.05 µM.

With `Cc1c(Cl)nc([C@H]2CCCN2C(=O)Nc2ccc(Cl)cc2F)n1Cc1ccc(Cl)cc1` [Compound 457], the half-inhibitory concentration (IC50) lay within 0.05 to 0.5 µM.

`O=C(Nc1ccc(C(F)(F)F)cc1)N1CCC[C@@H]1c1[nH]ncc1Cc1ccc(Cl)cc1` [Compound 10]: the 50% inhibitory concentration (IC50) was 0.5 to 5 µM.

For the compound `Cc1nnc([C@H]2CCCN2C(=O)NC2(c3ccccc3)CC2)n1Cc1ccc(Cl)cc1` [Compound 204], the IC50 is under 0.05 µM.

`Cc1nnc([C@H]2C[C@H](O)CN2C(=O)Nc2ccc(Cl)cc2F)n1Cc1ccc(Cl)cc1` [Compound 435]: the IC50 is under 0.05 µM.

On to `Cc1nnc([C@H]2CCCN2C(=O)N[C@H]2CCCOc3ccc(Cl)cc32)n1Cc1ccc(Cl)cc1` [Compound 156], for which the IC50 was in the range of 0.05 to 0.5 µM.

Consider `CNC(=O)c1ccc(C)c(N/C(=N/C#N)N2CCC[C@@H]2c2nnc(C)n2Cc2ccc(Cl)cc2)c1` [Compound 360], for which the IC50 lay in the range of 0.05 to 0.5 µM.

As for `O=C(Nc1ccc2occc2c1)N1CCC[C@@H]1c1nncn1Cc1ccc(Cl)cc1` [Compound 121], the IC50 was 0.05 to 0.5 µM.

Regarding `Cc1nnc([C@H]2CCCN2/C(=N\C#N)N[C@@H](C)c2cc3ccccc3o2)n1Cc1ccc(Cl)cc1` [Compound 195], the IC50 is under 0.05 µM.

For the compound `Cc1nc(C(F)(F)F)ccc1NC(=O)N1CC2CC2C1c1nnc(C)n1Cc1ccc(Cl)cc1` (stereo not drawn) [Compound 544], the IC50 fell in the range of 0.05 to 0.5 µM.

As to `Cc1cc(C)c(S(=O)(=O)N(C)C)cc1Nc1c(N2CCC[C@@H]2c2nnc(C)n2Cc2ccc(Cl)cc2)c(=O)c1=O` [Compound 609], the IC50 was in the range of 0.05 to 0.5 µM.

Take `Cc1nnc([C@H]2CCCN2C(=O)Nc2ccc(Cl)cc2C(F)(F)F)n1Cc1ccc(Cl)cc1` [Compound 405]: the IC50 is under 0.05 µM.

Consider `CC[C@H](C)NC(=O)N1CCC[C@@H]1c1nnc(C)n1Cc1ccc(Cl)cc1` [Compound 407], for which the 50% inhibitory concentration (IC50) lay in the range of 0.05 to 0.5 µM.

For the compound `Cc1nnc([C@H]2CC(F)CN2C(=O)N[C@H]2CCOc3cc(C(F)(F)F)ccc32)n1Cc1ccc(Cl)cc1` (stereo partly drawn) [Compound 574], the IC50 is under 0.05 µM.

As for `Cc1cc(C(F)(F)F)cc(C)c1NC(=O)N1CCC[C@@H]1c1nnc(C)n1Cc1ccc(Cl)cc1` [Compound 102], the IC50 was under 0.05 µM.

In the case of `CCc1noc(CC)c1NC(=O)N1CCC[C@@H]1c1nnc(C)n1Cc1ccc(Cl)cc1` [Compound 287], the IC50 is under 0.05 µM.

Regarding `O=C(N[C@H]1CCS(=O)(=O)c2ccc(Cl)cc21)N1CCC[C@@H]1c1nnc(CO)n1Cc1ccc(Cl)cc1` [Compound 371], the IC50 is 0.05 to 0.5 µM.

In the case of `Cc1nc(C(F)(F)F)ccc1NC(=O)N1CCC[C@@H]1c1nnc(C)n1Cc1cccc(Br)c1` [Compound 553], the half-maximal inhibitory concentration (IC50) lay in the range of 0.5 to 5 µM.

As for `Cc1nnc([C@H]2CCCN2C(=O)N[C@H]2CCCOc3ccccc32)n1Cc1ccc(Cl)cc1` [Compound 261], the concentration for half-maximal inhibition (IC50) is 0.05 to 0.5 µM.

As for `Cc1nnc([C@H]2CCCN2C(=O)Nc2ccc(Cl)c(C(F)(F)F)c2)n1Cc1ccc(Br)cc1` [Compound 568], the IC50 was 0.05 to 0.5 µM.

For `Cc1nnc([C@H]2CCCN2C(=O)Nc2cc(F)c(Cl)cc2F)n1Cc1ccc(Cl)cc1` [Compound 427], the IC50 is under 0.05 µM.

As to `Cc1nnc([C@H]2CCCN2C(=O)Nc2ccc3occc3c2)n1Cc1ccc(Cl)cc1` [Compound 122], the IC50 lay within 0.05 to 0.5 µM.

As to `CC[C@H](NC(=O)N1CCC[C@@H]1c1nnc(C)n1Cc1ccc(Cl)cc1)c1cc2cc(C(F)(F)F)ccc2o1` [Compound 280], the IC50 is under 0.05 µM.

On to `Cc1cc(C(F)(F)F)ccc1NC(=O)N1CCC[C@@H]1c1ncnn1Cc1ccc(Cl)cc1` [Compound 63], for which the IC50 is under 0.05 µM.

Turning to `Cc1nnc([C@H]2CCCN2C(=O)N[C@H]2CC(C)(C)Oc3cc(C(F)(F)F)ccc32)n1Cc1ccc(Cl)cc1` [Compound 268], the IC50 was under 0.05 µM.

For the compound `O=C(NC1CCCOc2ccccc21)N1CCC[C@@H]1c1ncnn1Cc1ccc(Cl)cc1` (stereo partly drawn) [Compound 89], the IC50 is under 0.05 µM.

On to `Cc1nnc([C@H]2CCCN2C(=O)Cc2ccc(C(F)(F)F)cc2)n1Cc1ccc(Cl)cc1` [Compound 173], for which the IC50 was in the range of 0.05 to 0.5 µM.

As to `Cc1nc([C@H]2CCCN2C(=O)Nc2c(C)cc(C(F)(F)F)cc2C)n(Cc2ccc(Cl)cc2)n1` [Compound 94], the concentration for half-maximal inhibition (IC50) lay in the range of 0.05 to 0.5 µM.

Take `CC[C@H](NC(=O)N1CCC[C@@H]1c1nnc(C)n1Cc1ccc(Cl)cc1)c1ccccc1` [Compound 181]: the IC50 was under 0.05 µM.

`O=C(N[C@H]1CCc2ccccc2C1)N1CCC[C@@H]1c1nncn1Cc1ccc(Cl)cc1` [Compound 103]: the half-inhibitory concentration (IC50) was under 0.05 µM.

For `Cc1cccnc1NC(=O)N1CCC[C@@H]1c1nnc(C)n1Cc1ccc(Cl)cc1` [Compound 281], the IC50 was under 0.05 µM.
